This series is described as follows: Plasma concentration of vitamin D3 in rats after a single oral dose (absorption / bioavailability study). It is filed as in vivo, Wistar rats. The settings on record: for Cmax / Tmax / AUC: Area Under the plasma conc.-time Curve: rat plasma, 50,000 IU oral; for AUC: Area Under the plasma conc.-time Curve: trapezoid rule; for Mean plasma concentration of vitamin D3: rat, 50,000 IU oral. As to the method: The present study was undertaken to compare the rate of absorption of vitamin D3, from formulated vitamin D3 with tomato seed oil and high-fat meal. The absorption was studied by serial measurements of the plasma concentration of vitamin D3 after ingestion of a pharmacological dose of the vitamin dissolved in the vehicles.
Male Albino Wistar rats were used. Animals were kept under a twelve-hour light/dark cycle. Group I was treated with normal diet and vitamin D3 (50,000 IU). Group II was given Vitamin D3 (50,000 IU) with High-Fat diet. Group III was treated with Vitamin D3 (50,000 IU) formulation in tomato seed oil orally. 10 mL/kg body weight was used for gavage administration. […] Animals were ether anesthetized and blood samples (approximately 0.5 mL) were collected via retro-orbital sinus puncture.
Blood samples were collected in heparinized eppendorf tubes. Tubes were inverted several times to mix and were then placed on ice and centrifuged to separate plasma within 1 h time. After centrifugation, plasma was transferred into storage tubes (0.5 mL), which were stored frozen (approximately −70° C.) until analyzed.
Plasma processing involved liquid-liquid extraction using acetonitrile and methanol (80:20). 100 μL aliquot of plasma was mixed with 1 mL of acetonitrile and methanol. After vortex mixing for 1 min, the sample was centrifuged at 7,000 rpm at 4° C. for 10 min to remove precipitated proteins; the supernatant was transferred to a clean tube and dried under nitrogen at room temperature (approximately 25° C.). After the evaporation was completed, the residue was reconstituted in 100 μL of methanol with 5 min of sonication, added to 400 μL of water, vortex mixed, and centrifuged again. The resulting supernatant was transferred to a sample vial for instrumental analysis.
Chromatography was performed using a Phenomenex C18 […]×4.6 mm, 5 μm column, maintained at a temperature of 35° C. A flow rate of 1 mL/min was used; mobile phase acetonitrile and methanol (80:20); elution gradient program, injection volume 5 μL, detection UV, 280 nm. Total run time was 15 min.
The data was represented in a plasma level-time curve. The area under time curve (AUC) was calculated using Trapezoid rule. The maximum concentration (Cmax) and maximum time (Tmax) were obtained directly from generated data. The maximum plasma concentration (Cmax) and the time to reach Cmax (Tmax) were obtained directly from the plasma concentration-time curve. All values were expressed as mean±standard deviation (SD) except Tmax mentioned as median.

The record followed here is US10130641B2, “Compositions of vitamin D and methods for their use and manufacture” (priority 2015, dated 2018).

Molecules are shown by their SMILES.

In general, Cmax refers to the highest concentration seen after dosing. A word on the Tmax: it is the time from dosing to the highest level. Turning to `C=C1CC[C@H](O)C/C1=C/C=C1\CCC[C@]2(C)[C@@H]([C@H](C)CCCC(C)C)CC[C@@H]12` [Vitamin D3 + High-Fat Diet, cholecalciferol], for the setting “high-fat diet”, the highest concentration (Cmax) is 86090 ± 12140 ng/mL, the Tmax is 12 h and the “AUC: Area Under the plasma conc.-time Curve” value is 1595 + 600.6 μg · hr/ml. For the same compound, the “Mean plasma concentration of vitamin D3” value (high-fat diet, 0 min) is 0 ng/mL. Where the note is “high-fat diet, 30 min”, the “Mean plasma concentration of vitamin D3” value is 0 ng/mL.

Under “normal diet”, `C=C1CC[C@H](O)C/C1=C/C=C1\CCC[C@]2(C)[C@@H]([C@H](C)CCCC(C)C)CC[C@@H]12` [Vitamin D3 + Normal Diet, cholecalciferol] gave a Cmax of 47030 ± 4150 ng/mL. Further, the time of peak concentration (Tmax) (normal diet) worked out at 24 h. Further, for the setting “normal diet”, the “AUC: Area Under the plasma conc.-time Curve” value is on record as 3478 + 1758 μg · hr/ml. In addition, the “Mean plasma concentration of vitamin D3” value reads like this: (normal diet, 0 min) 0 ng/mL; (normal diet, 30 min) 0 ng/mL; (normal diet, 1 hrs) 1867 ± 800 ng/mL; (normal diet, 2 hrs) 4310 ± 1530 ng/mL; (normal diet, 3 hrs) 9870 ± 4140 ng/mL; (normal diet, 4 hrs) 12000 ± 4970 ng/mL. The “Mean plasma concentration of vitamin D3” value (normal diet, 6 hrs) is 10740 ± 8060 ng/mL; the “Mean plasma concentration of vitamin D3” value (normal diet, 8 hrs) stood at 13590 ± 4160 ng/mL; the “Mean plasma concentration of vitamin D3” value (normal diet, 12 hrs) came out at 16060 ± 3500 ng/mL; the “Mean plasma concentration of vitamin D3” value (normal diet, 24 hrs) amounted to 47030 ± 4150 ng/mL; the “Mean plasma concentration of vitamin D3” value (normal diet, 48 hrs) is 17940 ± 1330 ng/mL; the “Mean plasma concentration of vitamin D3” value (normal diet, 72 hrs) was determined as 1070 ± 350 ng/mL.
